# In patent publication US7531502B2, “Diagnostic conjugate useful for intracellular imaging and for differentiating between tumor- and non-tumor cells” (Deutsches Krebsforschungszentrum Stiftung Des Offentlichen …, priority 2002, dated 2009):
# Tested on: HeLa cervix carcinoma cells
# Type: cell-based, human
# Method: (a) Kinetic Studies: HeLa-cell-Uptake of the Gd-complex-transporter [without Address-sequence or with Either Antisense (ACGT)- or Random-sequence (RCGT)] Compared to Magnevist®. Living HeLa-cells were harvested and divided into tubes (Falcon) (Cell No.: 20×10^6 cells per tube). The Gd-complex-transporter without address-sequence and the Magnevist® were each dissolved in MEM culture medium in a concentration of 100 pM and were then incubated for 10, 20, 30 and 60 minutes. […] T1 and T2 relaxation-times within the pellets of both tubes were measured to evaluate the intracellular relaxivity of the respective contrast agents (R=1/T1). The T1-relaxation time was measured by means of an inversion-recovery-sequence (TR: 5000 ms/TE: 76 ms/TI: 25-4000 ms, 15 different TI-values, scan-time 15×25 sec, FOV: 160 mm×160 mm, Matrix: 132×256, slice thickness: 7 mm, pixel size: 1.21×0.63 mm). T2 relaxation-time was measured by a multi-echo-sequence (TR: 5000 ms/16 TE-values: 30 ms−245 ms, FOV: 250 mm×250 mm, Matrix: 256×256, slice thickness: 5 mm, pixel size: 0.98×0.98 mm, scan time: 21 min 21 sec). […] This procedure was repeated hourly until no signal increase compared to the control tube (HeLa cells or lymphocytes in MEM medium without contrast agent) could be detected in T1 weighted sequences.
smiles,measurement,setting,value
"CNC[C@H](O)[C@@H](O)[C@H](O)[C@H](O)CO.CNC[C@H](O)[C@@H](O)[C@H](O)[C@H](O)CO.O=C([O-])CN(CCN(CC(=O)[O-])CC(=O)O)CCN(CC(=O)[O-])CC(=O)O.[Gd+3] [Magnevist®, reference compound]",MR signal change compared with HeLa cells incubated solely in MEM,"HeLa cells, 100 pM, 1 hour incubation",no signal change
same,relaxivity R (R=1/T1) within the HeLa-cell pellets,"HeLa-cell pellets after incubation, inversion-recovery T1 measurement",0.000995
